Measured values as given in patent US10442758B2, “Zinc or Copper (II) salt and use thereof as a biocide” (LABORATORIYA BIO ZET, LLC, priority 2013, dated 2019).

How the values were obtained:
Type in all cases: cell-based
fungal spores = test: Fungicidal activity according to GOST 30028.4-2006: resistance of treated material samples to fungal spores
[1] = tested on: E. coli No. 906, S. aureus No. 1257, P. aeruginosa, methicillin-resistant strain S. aureus; test: Bactericidal activity, summary over the investigated strains
Procedure: (§1) The determination is performed on E. coli No. 906 and S. aureus No. 1257 test strains being usually used to study the bactericidal activity of biocides as well as on clinical strains—P. aeruginosa and methicillin-resistant strain S. aureus—at salt concentrations from 0.5 to 2% and time of exposure from 5 to 60 min.
(§2) The same method as described in Example 9 is used to determine the bactericidal activity of ZMA against three of four strains studied in Example 9.

E. coli No. 906 = test: Bactericidal activity: bacterial culture exposed in salt solution, neutralized, inoculated on solid nutrient medium; settings: time of exposure 30 min, concentration from 1.0 to 2.5%
Procedure: as §1, §2

[2] = tested on: P. aeruginosa (clinical strain); test: as above; settings: for Bactericidal activity: growth of P. aeruginosa: 1.0 % wt., CFU in 1 ml
Procedure: as §1, §2

S. aureus No. 1257 = test: as above; settings: for Bactericidal activity: growth of S. aureus test strain: CFU in 1 ml
Procedure: The determination is performed on E. coli No. 906 and S. aureus No. […]
as §2

[3] = test material paper impregnated with latex SKS 65 GP, additive content 0.5 % wt.
[4] = test material paper impregnated with petrolatum base, additive content 4.7 % wt.
[5] = test material polyvinyl chloride emulsion, additive content 0.5 % wt.

Compound | Tolerance time (fungal spores; [3]) | Tolerance time (fungal spores; [4]) | Tolerance time (fungal spores; test material polyvinyl chloride emulsion, additive content 5 % wt.) | bactericidal activity compared with the proposed salts ([1]; comparison of Table 3 with Table 2) | bactericidal activity (in words) against E. coli No. 906 (E. coli No. 906) | Bactericidal activity: growth of P. aeruginosa ([2]; exposure 30 min) | bactericidal activity (in words) against P. aeruginosa ([2]; only at concentration from 2.5%) | Bactericidal activity: growth of S. aureus test strain (S. aureus No. 1257; 2.5 % wt., exposure 30 min) | Bactericidal activity: growth of S. aureus test strain (S. aureus No. 1257; 5 % wt., exposure 5 min) | bactericidal activity (in words) against S. aureus No. 1257 (S. aureus No. 1257; only at concentration of 2.5% and time of exposure of 60 min) | Tolerance time (fungal spores; [5]) | bactericidal effect (in words) ([1]; concentration 1.0%, time of exposure from 30 min) | Bactericidal activity: growth of P. aeruginosa ([2]; exposure 5 min) | Bactericidal activity: growth of S. aureus test strain (S. aureus No. 1257; 1.0 % wt., exposure 15 min)
C=C(C)C(=O)[O-].CC(=O)[O-].[Zn+2] [ZMA, zinc methacrylate-acetate] | 12 days | 16 days | 22 days | substantially lower than that of the proposed salts | stable bactericidal activity | >300 CFU | not completely stable bactericidal activity | >300 CFU | >300 CFU | sub-bactericidal activity | – | – | – | –
C=CC(=O)[O-].O=C([O-])c1ccccc1.[Zn+2] [Zinc acrylate-benzoate] | – | – | – | – | – | – | – | – | – | – | 11 days | – | – | –
Zinc methacrylate-sulfosalicylate | 16 days | 20 days | – | – | – | – | – | – | – | – | 16 days | stable bactericidal effect against three of four investigated strains | 1 CFU | >300 CFU
